# According to patent publication US20150374784A1, “COMPOSITIONS AND METHODS FOR REDUCING GERM CELL DEATH” (Los Angeles Biomedical Research Institute at Harbor-UCLA …, priority 2014, published 2015):
# Columns and labels:
# 4T1 cells = experiment: 4T1 mouse mammary cancer model, tumor size and weight; conditions: in vivo
# Procedure: A mouse mammary cancer model was used which utilizes 4T1 cells transfected with the luciferase gene. Growth and size of 4T1 mammary tumors were detected by bioluminescence imaging (IVIS Luminia II, Perkin Elmer, Waltham, Mass.). Mice (n=5 to 7 per group) were inoculated with 1×10^6 4 T1 cells into the right third mammary gland, and 7 days later they were left untreated or treated with HNG (5 mg/kg/day IP), CP (100 mg/Kg single IP) or HNG+CP for 14 days. Bioluminescence imaging was conducted at days 7 and 12. Animals were sacrificed and tumors were removed on day 14 after the start of treatment. Mammary tumors were smaller in CP and CP+HNG groups compared to the untreated and HNG-treated animals (Data images not shown).
# IGF-1 [1] = experiment: Plasma IGF-1 in mice bearing metastatic lung melanomas; type: in vivo, mouse; conditions: 14 days; HNG 5 mg/kg/day IP; CP 200 mg/kg IP single injection
# sperm = experiment: Cauda epididymal sperm count after multiple doses of CP in mice; type: in vivo, mouse; conditions: 28 days; HNG 10 mg/kg BW daily subcutaneously; CP 150 mg/kg BW IP, 6 doses at 5-day intervals
# Procedure: (§1) The objective of this study was to investigate whether HNG has protective effect on sperm output after multiple doses of CP in mice. Thirty adult male mice (C57BL/6J) were randomized into 4 groups: 1) 5 as control; 2) 5 received daily subcutaneously injection of HNG (10 mg/kg BW); 3) 10 were given 6 doses of CP (150 mg/kg BW) intraperitoneally at 5-day intervals; 4) 10 received both HNG and CP. All mice were killed at 28 days. Plasma HNG and IGF-1 levels were measured by ELISAs. The cauda epididymal sperm count was performed using a hemocytometer.
# IGF-1 [2] = experiment: Plasma IGF-1 levels by ELISA after multiple doses of CP; type: in vivo, mouse; conditions: 28 days; HNG 10 mg/kg BW daily subcutaneously; CP 150 mg/kg BW IP, 6 doses
# Procedure: as §1
compound,measurement,setting,value
"O=P1(N(CCCl)CCCl)NCCCO1 (stereo not shown) [CP, cyclophosphamide monohydrate]",mammary tumor size (bioluminescence imaging),4T1 cells,smaller
same,plasma IGF-1 levels,IGF-1 [1],modestly suppressed IGF-1
same,cauda epididymal sperm count,sperm,0.5±0.1 ×10^6/mg
same,plasma IGF-1 levels,IGF-1 [2],182.4 ± 10.5 ng/mL
